From patent publication US20120184035A1, “Methods and Compositions For Reprogramming Cells” (priority 2011, published 2012) come the findings set out here.

The test system of the assay is 293T cells. The experiment in a line: RT-PCR of muscle specific gene expression in permeabilized 293T cells incubated with cell extracts, with or without transcription modifying agents or conditioned media. The format is cell-based, human. From the text: A hallmark of a particular cell type is its gene expression profile. Reverse-Transcription of the expressed RNA in a cell, combined with Polymerase Chain Reaction aided amplification of the signal (RT-PCR), was used to detect the expression levels of these genes and provide a method to detect cell reprogramming. This example illustrates RT-PCR assays for detection of muscle specific genes in C2C12 cells (FIG. 5). Total RNA prepared from C2C12 cells at different stages of differentiation (t=0, t=3, t=6) or from 293T cells or HeLa cells were used in an RT-PCR reaction with primers specific to the muscle specific genes, MyoD or Myogenin. […] RT-PCR conditions for the detection of late muscle specific genes Troponin T and Myosin Heavy Chain, and for the hES cell marker Oct-4, were also established. Due to its relatively high sensitivity, gene expression analysis using RT-PCR was used to detect expression of marker genes in permeablized and potentially reprogrammed recipient cells.
Cell extracts were introduced into a recipient cell by reversible permeabilization of recipient cells using the pore-forming, calcium sensitive bacterial toxin Streptolysin O (SLO) and exposure of these cells to reprogramming cell extracts. Limited and transient exposure of cells to low doses of SLO in the absence of calcium ions allows the formation of membrane pores large enough to allow the passive diffusion of proteins up to the size of 100 kilodaltons, but not large enough for organelles. Subsequently, reversal of this membrane permeabilization by adding calcium ions allows the membrane to repair itself and the resealed cells are viable and can proliferate. During the permeabilization process, the recipient cell was incubated with whole cell extracts or nuclear or cytoplasmic extracts of a desired cell type (“donor cell”), and (in some experiments) in the presence of permeabilization/reprogramming promoting agents such as an energy generating system and cytoskeletal disruptors. The whole cell extract is believed to provide regulatory factors that are taken up by the permeabilizing recipient cell. The plasma membrane was then resealed, the cells were allowed to recover and cultured further, in conditions conducive to desired reprogramming. […] The resultant changes in gene expression profiles may arise over time, and may be further promoted by subsequent rounds of treatment with donor cell extract.
Cells were treated with reprogramming extracts (or control 293T “self” extracts) as above.
We next turned to testing the effects of these treatments on reprogramming potential by evaluating reprogramming of 293T or primary NHDF-N cells incubated with cell extracts from the C2C12 muscle differentiating system by gene expression analysis (RT-PCR). In the case of examining the effects of transcription modifying agents, several variations of treatment plans were envisioned. The agents can be applied before or after permeabilizing the cells (or both) and for different durations of time, as long as the cells survive the treatment. Plausibly, different treatment designs could potentially lead to different effects.

Setting [1] is: agents applied after priming/permeabilization of C2C12 extract exposed 293T cells, 5-aza 10 uM, SB 10 mM, TSA 10 nM.
Setting [2] is: agents for 48 hours before permeabilization, 293T self extract.

“Also recorded” adds a separate entry of the source.

For the compound `CC(/C=C/C(=O)NO)=C\[C@@H](C)C(=O)c1ccc(N(C)C)cc1` [Trichostatin A], the “level of MyoD RNA detection” value reads like this: under setting [1], “did not appear to enhance the level of MyoD expression”; (agents for 48 hours before permeabilization, C2C12 extract incubated 293T cells, relative to C2C12 extract alone, listed as TSA) “appeared to enhance the level detection of this RNA; also recorded: enhance the level detection of this RNA slightly”.

As for `CCCC(=O)[O-].[Na+]` [Sodium Butyrate], the “level of MyoD RNA detection” value was “small increase in expression” under setting [1]; “did not appear to enhance the level of MyoD expression” (agents applied after priming/permeabilization of C2C12 extract exposed 293T cells, 5-aza 10 uM, SB 10 mM, TSA 10 nM, listed as SB); “appeared to enhance the level detection of this RNA; also recorded: enhance the level detection of this RNA slightly” (agents for 48 hours before permeabilization, C2C12 extract incubated 293T cells, relative to C2C12 extract alone, listed as SB). Besides, the “MyoD expression in cells incubated with control self extract” value under setting [2] is listed as “low level of expression of MyoD”.

With `Nc1ncn([C@@H]2O[C@H](CO)[C@@H](O)[C@H]2O)c(=O)n1` [5-azacytidine], the “MyoD expression in cells primed with control self extract” value (agent applied post priming, 293T self extract) is listed as “low level of expression of MyoD”. The “level of MyoD RNA detection” value is listed as “did not appear to enhance the level of MyoD expression” under setting [1] and “appeared to enhance the level detection of this RNA; also recorded: enhance the level detection of this RNA slightly” (agents for 48 hours before permeabilization, C2C12 extract incubated 293T cells, relative to C2C12 extract alone). Moreover, the “MyoD expression in cells incubated with control self extract” value under setting [2] is “low level of expression of MyoD”. Also, the “Troponin T transcript at later timepoints” value (later timepoints, modifier treated and C2C12 extract incubated 293T cells) is “more abundant and more specific”.
